US12268670B2, “Combination of small molecule CD-47 inhibitors with other anti-cancer agents” (Aurigene Oncology Limited, priority 2018, dated 2025)
Marks after values point to notes of the source that are not given here.

Columns and labels:
[1] = system: H929 (multiple myeloma cell line) cells; assay: Human macrophage phagocytosis assay in combination with bortezomib; assay type: cell-based; details: H929 cells treated with 10 nM bortezomib for 48 hrs, compared with compound alone; FIG. 2
Experimental: In vitro phagocytosis assay was performed to evaluate the ability of test item to enhance the phagocytic activity of macrophages. Monocytes were isolated from blood of healthy donors and cultured for 6-8 days using complete RPMI (Roswell Park Memorial Institute) supplemented with 20 ng/mL recombinant human M-CSF to differentiate them into macrophages. Media was changed every alternate day. Simultaneously H929 cells were cultured in complete RPMI media and treated with 10 nM bortezomib for 48 hrs. Macrophages were starved for 2 hrs in serum free RPMI.CFSE stained, Bortezomib treated/untreated H929 (multiple myeloma cell line) cells were seeded at a density of 0.2×10^6 cells/well in 96-well low attachment plate and treated with anti-human CD47 purified B6H12 (5 μg/mL)/Mouse IgG1 K Isotype Control antibody (5 μg/mL)/different concentrations of selected compounds of the present invention in serum free media for 30 min at 37° C. Serum starved macrophages were added to H929 cells at a ratio of 1:4 (macrophages:H929 cells) and incubated for 2 hours at 37° C. Cells in each well were stained with anti-human CD11b APC for 30 minutes at 4° C. in dark followed by fixation and FACS analysis. Cells positive for FITC and APC were considered as H929 cells phagocytosed by macrophages. Data acquired using FACS verse was analysed using Flow Jo software.

[2] = system: luciferase expressing Raji (lymphoma cell line) cells; assay: Luciferase based phagocytosis assay (macrophages, combination with anti-human CD20 antibody); assay type: cell-based; details: in combination with anti-human CD20 antibody, compared with compound alone; FIG. 1
Experimental: In vitro phagocytosis assay was performed to evaluate the ability of test item to enhance the phagocytic activity of macrophages. Monocytes were isolated from blood of healthy donor and cultured for 6-8 days using 10% RPMI (Roswell Park Memorial Institute) media and recombinant human M-CSF to differentiate into macrophages. Media was changed every alternate day. After differentiation, adherent macrophages were collected by gentle scraping and cultured in 10% RPMI overnight at a density of 0.1 million per well in 48 well tissue culture plate. Simultaneously, luciferase expressing Raji (lymphoma cell line) cells were cultured in 10% RPMI media with 100 μg/mL of hygromycin B in tissue culture flask. On the day of phagocytosis, macrophages were serum starved for 2 hours. 0.4 million luciferase expressing Raji cells per well were incubated with anti-human CD47 antibody or Mouse IgG1 K Isotype Control antibody or various concentrations of selected compounds of the present invention alone or in combination with anti-human CD20 antibody in serum free media for 30 min at 37° C. and added into respective well of the 48 well plate seeded with macrophages. […] Luminescence reading was taken using plate reader after transferring the content of each well to white plate. Intensity of luminescence indicated the extent of phagocytosis. […]

[3] = system: A20 syngeneic lymphoma model; assay: Efficacy study in A20 syngeneic lymphoma model; assay type: in vivo, Balb/c mice
Source text: Female Balb/c (BALB/cAnNTac) mice (6-8 weeks-old) bred in-house were used in this efficacy study in the A20 syngeneic lymphoma model. The animals were marked individually with tail marks and kept in cages that were identified by a cage card showing the study code, date of experimentation, sex and number of animals. During the experiment, the animals were weighed daily. A20 cell line (B-cell lymphoma line derived from a spontaneous reticulum cell neoplasm found in an old BALB/cAnN mouse) was procured from ATCC.
When the mean tumor volumes reached approximately 75 mm^3, the animals were randomized based on tumor volumes into four groups (G1 to G4) of twelve animals (N=12) each and dosed with vehicle, Compound 6, anti-mouse PD-L1 antibody and the combination of Compound 6 and anti-mouse PD-L1 antibody as mentioned below:
The treatment was continued for a period of 21 days, during which the overall efficacy and tolerability were evaluated based on tumor volume and body weight changes observed during the treatment period.
Individual animal body weights were recorded daily before the administration of Compound 6 throughout the experimental period. […] The tumor volumes were measured in all treatment group animals thrice a week (once every 2-3 days) using a digital Vernier callipers. From an ethical viewpoint, any treatment/control group with a mean tumor weight in excess of 10% of animal body weight were humanely sacrificed. As a measure of efficacy, the % T (treatment)/C(control) and % TGI (% Tumor growth inhibition) values were calculated. Graphs and statistical analysis were performed using GraphPad Prism®, Version 7.0. For analysis of tumor volume data, statistical comparison was done on Day 18 for all groups using One-way ANOVA with Dunnett's multiple comparison test. All analyses and comparisons was evaluated at the 5% (p<0.05) level. A “p” value less than 0.05 was considered as significant.

| Structure (SMILES) | phagocytosis of multiple myeloma cells (FACS, FITC and APC positive cells) [1] | phagocytosis of lymphoma cells (luminescence intensity) [2] | % TGI ([3]; A20 tumor bearing Balb/c mice, Compound 6 30 mg/kg bid oral, anti-mouse PD-L1 antibody 200 μg/animal i.p. Day 1, 3, 6, 9, statistics on Day 18) | tolerability (clinical signs, mortality) ([3]; Compound 6 30 mg/kg bid, single agent or in combination with PD-L1 antibody, 21 days) | tumor growth inhibition (TGI) ([3]; at the end of treatment period (21 days), Compound 6 30 mg/kg, A20 tumor bearing mice) [%] |
| --- | --- | --- | --- | --- | --- |
| N=C(N)NCCC[C@H](NC(=O)N1CCCC1C(=O)O)c1nc([C@@H](N)CCC(=O)O)no1 (stereo partly shown) [Compound 3] | Enhanced phagocytosis | Enhanced phagocytosis |  |  |  |
| NC(=O)CC[C@H](N)c1noc(CNC(=O)N2CCCC2C(=O)O)n1 (stereo partly shown) [Compound 6] | Enhanced phagocytosis | Enhanced phagocytosis | 72* % | well tolerated without any treatment related clinical signs and mortality | 72 |
